Patent US11458171B2, “Engineering stem cells for cancer therapy” (CHINA MEDICAL UNIVERSITY, priority 2018, dated 2022)

System: UMSCs
Assay: Effect of GCV on plain UMSCs
Type: cell-based, human
Conditions: GCV alone on unmodified UMSCs

Nc1nc(O)c2ncn(COC(CO)CO)c2n1 [GCV, ganciclovir]
cell proliferation of UMSCs: did not affect cell proliferation
